Laboratory results reported in ChEMBL document CHEMBL1150977, “A quantitative analysis of kinase inhibitor selectivity” (Nat Biotechnol, 2008).

Target: T1, Serine/threonine-protein kinase D2 (Homo sapiens, UniProt Q9BZL6)
T1 sequence (Q9BZL6 whole entry): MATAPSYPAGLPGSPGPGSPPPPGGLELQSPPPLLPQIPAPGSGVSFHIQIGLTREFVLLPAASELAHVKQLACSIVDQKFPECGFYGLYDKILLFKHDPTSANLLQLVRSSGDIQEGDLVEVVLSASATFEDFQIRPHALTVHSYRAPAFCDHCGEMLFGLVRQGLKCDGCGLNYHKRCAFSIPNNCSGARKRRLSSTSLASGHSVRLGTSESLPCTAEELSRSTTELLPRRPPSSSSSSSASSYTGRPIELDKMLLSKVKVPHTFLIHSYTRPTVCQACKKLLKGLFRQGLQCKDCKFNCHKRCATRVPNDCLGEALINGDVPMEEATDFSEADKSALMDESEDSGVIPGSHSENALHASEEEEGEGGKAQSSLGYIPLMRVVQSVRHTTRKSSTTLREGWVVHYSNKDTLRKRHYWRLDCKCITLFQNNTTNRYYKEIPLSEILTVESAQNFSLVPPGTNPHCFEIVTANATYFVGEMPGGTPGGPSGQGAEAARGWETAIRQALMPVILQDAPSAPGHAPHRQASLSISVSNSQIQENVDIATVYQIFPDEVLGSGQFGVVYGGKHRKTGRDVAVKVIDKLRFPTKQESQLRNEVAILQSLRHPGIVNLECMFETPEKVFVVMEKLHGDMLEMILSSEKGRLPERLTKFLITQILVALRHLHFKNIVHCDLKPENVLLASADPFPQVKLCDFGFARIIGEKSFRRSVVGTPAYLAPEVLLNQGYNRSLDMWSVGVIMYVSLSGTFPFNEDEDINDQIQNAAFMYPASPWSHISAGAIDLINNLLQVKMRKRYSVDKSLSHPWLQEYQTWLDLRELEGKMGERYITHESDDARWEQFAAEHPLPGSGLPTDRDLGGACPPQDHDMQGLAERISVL

| Structure (SMILES) | Kd |
| --- | --- |
| CCOc1cc2ncc(C#N)c(Nc3ccc(F)c(Cl)c3)c2cc1NC(=O)/C=C/CN(C)C [PELITINIB] | > 10 µM |
| Nc1nc(Nc2ccc(S(N)(=O)=O)cc2)nn1C(=O)c1c(F)cccc1F [JNJ-7706621] | > 10 µM |
| Oc1ccc(-c2nc(-c3ccncc3)c(-c3ccc(F)cc3)[nH]2)cc1 [SB-202190] | > 10 µM |
| COCC(=O)NC/C=C/c1ccc2ncnc(Nc3ccc(Oc4ccc(C)nc4)c(C)c3)c2c1 [CP-724714] | > 10 µM |
| NC(=O)c1ccc(-c2nc(-c3ccc4c(c3)OCO4)c(-c3ccccn3)[nH]2)cc1 [SB-431542] | > 10 µM |

Target: T2, Serine/threonine-protein kinase DCLK3 (Homo sapiens, UniProt Q9C098)
T2 sequence (Q9C098 whole entry): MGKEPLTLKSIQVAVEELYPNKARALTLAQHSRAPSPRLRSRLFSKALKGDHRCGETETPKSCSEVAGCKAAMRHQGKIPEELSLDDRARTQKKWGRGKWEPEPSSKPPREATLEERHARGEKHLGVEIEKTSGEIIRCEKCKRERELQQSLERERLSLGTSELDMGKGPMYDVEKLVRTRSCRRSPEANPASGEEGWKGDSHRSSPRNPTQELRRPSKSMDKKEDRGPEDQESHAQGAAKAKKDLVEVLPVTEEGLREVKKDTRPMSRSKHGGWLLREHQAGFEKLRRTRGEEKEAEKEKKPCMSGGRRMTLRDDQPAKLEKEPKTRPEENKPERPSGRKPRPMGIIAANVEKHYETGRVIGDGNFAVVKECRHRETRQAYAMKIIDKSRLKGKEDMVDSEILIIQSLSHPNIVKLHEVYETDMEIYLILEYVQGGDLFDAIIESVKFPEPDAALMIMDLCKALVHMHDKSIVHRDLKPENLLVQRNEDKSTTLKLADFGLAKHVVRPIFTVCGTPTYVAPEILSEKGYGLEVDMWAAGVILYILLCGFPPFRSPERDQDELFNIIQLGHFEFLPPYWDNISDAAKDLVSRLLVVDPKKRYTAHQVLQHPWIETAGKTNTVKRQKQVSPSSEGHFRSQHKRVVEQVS

| Structure (SMILES) | Kd |
| --- | --- |
| CCOc1cc2ncc(C#N)c(Nc3ccc(F)c(Cl)c3)c2cc1NC(=O)/C=C/CN(C)C [PELITINIB] | 4.9 µM |
| Oc1ccc(-c2nc(-c3ccncc3)c(-c3ccc(F)cc3)[nH]2)cc1 [SB-202190] | > 10 µM |
| COCC(=O)NC/C=C/c1ccc2ncnc(Nc3ccc(Oc4ccc(C)nc4)c(C)c3)c2c1 [CP-724714] | > 10 µM |
| NC(=O)c1ccc(-c2nc(-c3ccc4c(c3)OCO4)c(-c3ccccn3)[nH]2)cc1 [SB-431542] | > 10 µM |

Target: Fibroblast growth factor receptor 1 (Homo sapiens, UniProt P11362)
Sequence (P11362 whole entry): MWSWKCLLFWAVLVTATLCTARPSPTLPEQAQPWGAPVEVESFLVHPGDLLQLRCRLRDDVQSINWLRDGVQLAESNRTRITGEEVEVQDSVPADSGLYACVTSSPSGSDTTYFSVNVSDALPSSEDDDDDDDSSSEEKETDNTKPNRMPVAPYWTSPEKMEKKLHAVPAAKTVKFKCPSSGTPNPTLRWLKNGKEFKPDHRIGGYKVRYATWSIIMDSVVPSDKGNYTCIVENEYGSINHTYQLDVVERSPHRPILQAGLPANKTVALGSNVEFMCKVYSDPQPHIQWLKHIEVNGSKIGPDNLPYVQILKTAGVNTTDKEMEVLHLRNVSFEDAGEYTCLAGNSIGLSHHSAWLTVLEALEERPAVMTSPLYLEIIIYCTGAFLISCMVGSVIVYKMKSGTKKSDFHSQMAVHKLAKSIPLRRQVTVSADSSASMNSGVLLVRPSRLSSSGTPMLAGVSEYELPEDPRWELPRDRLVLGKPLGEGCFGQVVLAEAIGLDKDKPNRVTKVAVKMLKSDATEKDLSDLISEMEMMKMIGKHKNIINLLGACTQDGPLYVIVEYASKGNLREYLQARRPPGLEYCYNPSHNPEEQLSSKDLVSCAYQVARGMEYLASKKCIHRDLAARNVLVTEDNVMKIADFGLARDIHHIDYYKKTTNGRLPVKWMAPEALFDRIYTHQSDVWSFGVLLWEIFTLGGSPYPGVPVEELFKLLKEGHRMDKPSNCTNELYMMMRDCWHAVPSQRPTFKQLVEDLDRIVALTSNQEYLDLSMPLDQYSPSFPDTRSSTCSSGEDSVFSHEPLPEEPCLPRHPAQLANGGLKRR

| Structure (SMILES) | Kd |
| --- | --- |
| CCOc1cc2ncc(C#N)c(Nc3ccc(F)c(Cl)c3)c2cc1NC(=O)/C=C/CN(C)C [PELITINIB] | > 10 µM |
| Oc1ccc(-c2nc(-c3ccncc3)c(-c3ccc(F)cc3)[nH]2)cc1 [SB-202190] | > 10 µM |
| COCC(=O)NC/C=C/c1ccc2ncnc(Nc3ccc(Oc4ccc(C)nc4)c(C)c3)c2c1 [CP-724714] | > 10 µM |
| NC(=O)c1ccc(-c2nc(-c3ccc4c(c3)OCO4)c(-c3ccccn3)[nH]2)cc1 [SB-431542] | > 10 µM |

Target: T3, MAP kinase-activated protein kinase 5 (Homo sapiens, UniProt Q8IW41)
T3 sequence (Q8IW41 whole entry): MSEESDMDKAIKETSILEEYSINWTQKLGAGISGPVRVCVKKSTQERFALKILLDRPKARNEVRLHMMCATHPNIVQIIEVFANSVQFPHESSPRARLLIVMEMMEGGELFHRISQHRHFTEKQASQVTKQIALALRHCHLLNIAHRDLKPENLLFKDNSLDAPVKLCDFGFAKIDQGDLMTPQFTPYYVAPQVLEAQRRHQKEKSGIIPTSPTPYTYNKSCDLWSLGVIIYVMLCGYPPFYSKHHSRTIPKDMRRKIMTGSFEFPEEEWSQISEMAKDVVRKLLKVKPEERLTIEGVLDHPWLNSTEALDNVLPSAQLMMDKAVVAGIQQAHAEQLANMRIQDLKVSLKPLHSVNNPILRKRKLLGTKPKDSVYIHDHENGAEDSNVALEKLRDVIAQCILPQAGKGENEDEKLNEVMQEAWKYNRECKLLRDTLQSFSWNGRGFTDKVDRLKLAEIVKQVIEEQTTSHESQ

| Structure (SMILES) | Kd |
| --- | --- |
| CCOc1cc2ncc(C#N)c(Nc3ccc(F)c(Cl)c3)c2cc1NC(=O)/C=C/CN(C)C [PELITINIB] | > 10 µM |
| Nc1nc(Nc2ccc(S(N)(=O)=O)cc2)nn1C(=O)c1c(F)cccc1F [JNJ-7706621] | > 10 µM |
| Oc1ccc(-c2nc(-c3ccncc3)c(-c3ccc(F)cc3)[nH]2)cc1 [SB-202190] | > 10 µM |
| COCC(=O)NC/C=C/c1ccc2ncnc(Nc3ccc(Oc4ccc(C)nc4)c(C)c3)c2c1 [CP-724714] | > 10 µM |
| NC(=O)c1ccc(-c2nc(-c3ccc4c(c3)OCO4)c(-c3ccccn3)[nH]2)cc1 [SB-431542] | > 10 µM |

Target: T4, Discoidin domain-containing receptor 2 (Homo sapiens, UniProt Q16832)
T4 sequence (Q16832 whole entry): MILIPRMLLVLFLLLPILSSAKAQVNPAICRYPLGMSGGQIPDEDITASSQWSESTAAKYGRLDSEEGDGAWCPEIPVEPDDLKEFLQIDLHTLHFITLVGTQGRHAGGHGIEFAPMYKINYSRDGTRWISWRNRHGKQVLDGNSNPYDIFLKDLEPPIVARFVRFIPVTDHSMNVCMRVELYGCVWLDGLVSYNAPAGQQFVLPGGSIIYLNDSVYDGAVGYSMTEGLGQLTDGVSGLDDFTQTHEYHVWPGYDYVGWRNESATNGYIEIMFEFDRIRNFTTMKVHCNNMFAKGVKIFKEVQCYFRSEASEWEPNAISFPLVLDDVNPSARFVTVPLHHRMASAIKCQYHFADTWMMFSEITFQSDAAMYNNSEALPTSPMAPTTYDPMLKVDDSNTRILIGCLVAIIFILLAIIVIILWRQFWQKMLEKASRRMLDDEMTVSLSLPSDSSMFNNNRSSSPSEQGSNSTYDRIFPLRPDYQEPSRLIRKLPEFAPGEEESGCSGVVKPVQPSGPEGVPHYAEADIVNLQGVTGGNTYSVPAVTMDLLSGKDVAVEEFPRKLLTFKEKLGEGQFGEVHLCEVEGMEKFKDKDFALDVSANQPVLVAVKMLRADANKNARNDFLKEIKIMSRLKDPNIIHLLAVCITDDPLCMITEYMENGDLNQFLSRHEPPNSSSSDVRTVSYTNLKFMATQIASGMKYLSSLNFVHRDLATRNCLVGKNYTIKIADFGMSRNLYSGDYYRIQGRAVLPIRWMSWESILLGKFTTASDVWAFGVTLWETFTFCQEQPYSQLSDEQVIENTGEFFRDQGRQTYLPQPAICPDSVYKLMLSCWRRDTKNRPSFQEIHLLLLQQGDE

| Structure (SMILES) | Kd |
| --- | --- |
| CCOc1cc2ncc(C#N)c(Nc3ccc(F)c(Cl)c3)c2cc1NC(=O)/C=C/CN(C)C [PELITINIB] | > 10 µM |
| Nc1nc(Nc2ccc(S(N)(=O)=O)cc2)nn1C(=O)c1c(F)cccc1F [JNJ-7706621] | > 10 µM |
| Oc1ccc(-c2nc(-c3ccncc3)c(-c3ccc(F)cc3)[nH]2)cc1 [SB-202190] | 1.6 µM |
| COCC(=O)NC/C=C/c1ccc2ncnc(Nc3ccc(Oc4ccc(C)nc4)c(C)c3)c2c1 [CP-724714] | > 10 µM |
| NC(=O)c1ccc(-c2nc(-c3ccc4c(c3)OCO4)c(-c3ccccn3)[nH]2)cc1 [SB-431542] | > 10 µM |
